{"source": "patent US20230355562A1", "about": "“METHODS FOR STABILIZING ATHEROSCLEROTIC PLAQUES USING LIPOXINS, RESOLVINS, AND ANALOGS THEREOF” (The Forsyth Institute, priority 2015, published 2023)", "key": {"[1]": {"tested_on": "atherosclerotic plaques", "test": "Plaque disruption by MRI before and after triggering in a rabbit model of atherosclerosis (cholesterol diet plus balloon injury)", "type": "in vivo, New Zealand White (NZW) rabbits", "settings": "for plaque stabilization: applied to both sides of the mandible on the gingiva every-other-day, high cholesterol diet and balloon injury to descending thoracic and abdominal aortic segments", "procedure": "New Zealand White (NZW) rabbits (n=10) received cholesterol-enriched diet (1%) for 8 weeks to develop atherosclerosis. In addition, balloon injury was performed at 2 weeks to advance the atherosclerosis at the descending thoracic and abdominal aortic segments. The […] of cholesterol feeding was followed by a 4 week period of normal chow diet at the end of the experiment. Half of the rabbits were randomized in the experimental (9,12 benzo LXA4-treated) group and half in the control group.\nTopical LXA4 (1 mg/ml) was applied on both side of the mandible on the gingiva every-other-day for the duration of the experiment. In vivo MRI images were taken at 12 weeks at before and after triggering. After euthanasia, the aortas were dissected for ex-vivo MRI and histology."}, "[2]": {"tested_on": "polymorphonuclear leukocyte (PMN) infiltration", "settings": "in vivo, mouse model of acute inflammation; cited from earlier work"}}, "data": [{"compound": "CC[C@@H](O)/C=C/C=C\\C[C@@H](O)/C=C/C=C/C=C\\[C@@H](O)CCCC(=O)O", "note": "[Resolvin E1]", "values": [{"measurement": "plaque stabilization", "setting": "[1]", "value": "sufficient to stabilize atherosclerotic plaques"}]}, {"compound": "9,12 benzo LXA4", "values": [{"measurement": "plaque stabilization", "setting": "[1]", "value": "sufficient to stabilize atherosclerotic plaques"}, {"measurement": "segments that showed disruption (post-trigger image showed a luminal thrombus) of segments analyzed", "setting": "[1]; treatment group, topical 1 mg/ml on gingiva, both sides of the mandible, every-other-day, in vivo MRI at 12 weeks, only one site in one rabbit", "value": "2/104"}, {"measurement": "levels of pro-inflammatory cytokines", "setting": "[2]", "value": "significantly reducing"}, {"measurement": "polymorphonuclear leukocyte (PMN) infiltration", "setting": "[2]", "value": "significantly reducing"}]}]}
